Literature values in PubChem BioAssay AID1259409 (Chemical Carcinogenesis Research Information System (CCRIS), 2018).

Tested on: rodent chemically induced tumor inhibition, incidence and multiplicity
Test: CCRIS tumor inhibitor studies
Settings: Route [Inhibitor]: ORAL, Species: RAT, Promoter: NONE USED

SMILES: CC1=C(/C=C/C(C)=C/C=C/C(C)=C/C(=O)NCCO)C(C)(C)CCC1
- tumour outcome (control, treated, inhibition, significance) (Carcinogen: 1,2-DIMETHYLHYDRAZINE, 540-73-8, Dose [Inhibitor]: 2 MMOL/KG DIET DAILY STARTING 12 D AFTER CARCINOGEN TREATMENT THROUGH ABOUT 8 MO AFTER CARCINOGEN DOSE (STUDY DURATION:, Strain/Sex: F344/MALE, Target Tissue: Type of Lesion: COLON: ADENOCARCINOMA, Dose [Carcinogen]: 150 MG/KG BW ONCE): 10/39 (26%), 5/30 (17%), 35%, not significant
- tumour outcome (control, treated, inhibition, significance) (Carcinogen: 1,2-DIMETHYLHYDRAZINE, 540-73-8, Dose [Inhibitor]: 2 MMOL/KG DIET DAILY STARTING 12 D AFTER CARCINOGEN TREATMENT THROUGH ABOUT 8 MO AFTER CARCINOGEN DOSE (STUDY DURATION:, Strain/Sex: F344/MALE, Target Tissue: Type of Lesion: COLON: ADENOMA, Dose [Carcinogen]: 150 MG/KG BW ONCE): 23/39 (59%), 11/30 (37%), 37%, not significant
- tumour outcome (control, treated, inhibition, significance) (Carcinogen: L-AZASERINE, 115-02-6, Dose [Inhibitor]: 1 MMOL/KG DIET DAILY FOR 358 D STARTING 1 WK AFTER COMPLETION OF CARCINOGEN TREATMENT (STUDY DURATION: 66 WK), Strain/Sex: WISTAR-LEWIS/FEMALE, Target Tissue: Type of Lesion: PANCREAS: ADENOMA, Dose [Carcinogen]: 10 MG/KG BW 1/WK FOR 15 WK): 50%, 25%, 50%, not significant
- tumour outcome (control, treated, inhibition, significance) (Carcinogen: L-AZASERINE, 115-02-6, Dose [Inhibitor]: 1 MMOL/KG DIET DAILY FOR 358 D STARTING 1 WK AFTER COMPLETION OF CARCINOGEN TREATMENT (STUDY DURATION: 66 WK), Strain/Sex: WISTAR-LEWIS/FEMALE, Target Tissue: Type of Lesion: PANCREAS: CARCINOMA IN SITU, Dose [Carcinogen]: 10 MG/KG BW 1/WK FOR 15 WK): 8%, 25%, -213%, not calculated
- tumour outcome (control, treated, inhibition, significance) (Carcinogen: L-AZASERINE, 115-02-6, Dose [Inhibitor]: 1 MMOL/KG DIET DAILY FOR 358 D STARTING 1 WK AFTER COMPLETION OF CARCINOGEN TREATMENT (STUDY DURATION: 66 WK), Strain/Sex: WISTAR-LEWIS/FEMALE, Target Tissue: Type of Lesion: PANCREAS: CARCINOMA, Dose [Carcinogen]: 10 MG/KG BW 1/WK FOR 15 WK): 13%, 0%, 100%, not significant
- tumour outcome (control, treated, inhibition, significance) (Carcinogen: L-AZASERINE, 115-02-6, Dose [Inhibitor]: 1 MMOL/KG DIET DAILY FOR 358 D STARTING 1 WK AFTER COMPLETION OF CARCINOGEN TREATMENT (STUDY DURATION: 66 WK), Strain/Sex: WISTAR-LEWIS/FEMALE, Target Tissue: Type of Lesion: PANCREAS: NEOPLASM, Dose [Carcinogen]: 10 MG/KG BW 1/WK FOR 15 WK): 71%, 50%, 30%, p 0.14
- tumour outcome (control, treated, inhibition, significance) (Carcinogen: L-AZASERINE, 115-02-6, Dose [Inhibitor]: 1 MMOL/KG DIET DAILY FOR 358 D STARTING 1 WK AFTER COMPLETION OF CARCINOGEN TREATMENT (STUDY DURATION: 66 WK), Strain/Sex: WISTAR-LEWIS/MALE, Target Tissue: Type of Lesion: PANCREAS: ADENOMA, Dose [Carcinogen]: 10 MG/KG BW 1/WK FOR 15 WK): 25%, 56%, -124%, not calculated
- tumour outcome (control, treated, inhibition, significance) (Carcinogen: L-AZASERINE, 115-02-6, Dose [Inhibitor]: 1 MMOL/KG DIET DAILY FOR 358 D STARTING 1 WK AFTER COMPLETION OF CARCINOGEN TREATMENT (STUDY DURATION: 66 WK), Strain/Sex: WISTAR-LEWIS/MALE, Target Tissue: Type of Lesion: PANCREAS: CARCINOMA IN SITU, Dose [Carcinogen]: 10 MG/KG BW 1/WK FOR 15 WK): 29%, 28%, 3%, not significant
- tumour outcome (control, treated, inhibition, significance) (Carcinogen: L-AZASERINE, 115-02-6, Dose [Inhibitor]: 1 MMOL/KG DIET DAILY FOR 358 D STARTING 1 WK AFTER COMPLETION OF CARCINOGEN TREATMENT (STUDY DURATION: 66 WK), Strain/Sex: WISTAR-LEWIS/MALE, Target Tissue: Type of Lesion: PANCREAS: CARCINOMA, Dose [Carcinogen]: 10 MG/KG BW 1/WK FOR 15 WK): 46%, 8%, 83%, p<0.05
- tumour outcome (control, treated, inhibition, significance) (Carcinogen: L-AZASERINE, 115-02-6, Dose [Inhibitor]: 1 MMOL/KG DIET DAILY FOR 358 D STARTING 1 WK AFTER COMPLETION OF CARCINOGEN TREATMENT (STUDY DURATION: 66 WK), Strain/Sex: WISTAR-LEWIS/MALE, Target Tissue: Type of Lesion: PANCREAS: NEOPLASM, Dose [Carcinogen]: 10 MG/KG BW 1/WK FOR 15 WK): 100%, 92%, 8%, not significant
- tumour outcome (control, treated, inhibition, significance) (Carcinogen: L-AZASERINE, 115-02-6, Dose [Inhibitor]: 2.0 MMOL/KG DIET DAILY FOR 336 D OUT OF 358 D STARTING 1 WK AFTER COMPLETION OF CARCINOGEN TREATMENT (STUDY DURATION: 66, Strain/Sex: WISTAR-LEWIS/FEMALE, Target Tissue: Type of Lesion: PANCREAS: NEOPLASM (ADENOMA, CARCINOMA IN SITU, CARCINOMA), Dose [Carcinogen]: 10 MG/KG BW 1/WK FOR 15 WK STARTING 15 WK PRIOR TO AGENT TREATMENT): ?/24 (71%), ?/24 (25%), 65%, p<0.05
